Results: article PMC6838683, “Discovery of Human Signaling Systems: Pairing Peptides to G Protein-Coupled Receptors” (Cell, 2019)
Read-outs that look alike come from different tables or passages of the source. Positions of bridges follow the written chain, without caps; N, C: chain ends. No end group written: not given here.

Assays:
GPR139 = biological target: T1, GPR139 (Homo sapiens, UniProt Q6DWJ6); test: Repeat of proposed literature pairing (mass redistribution and/or internalization); type: cell-based
T1 construct: hIL-2Ra signal peptide (N); expressed in transfected cells
T1 sequence (Q6DWJ6 2-353 limits assumed): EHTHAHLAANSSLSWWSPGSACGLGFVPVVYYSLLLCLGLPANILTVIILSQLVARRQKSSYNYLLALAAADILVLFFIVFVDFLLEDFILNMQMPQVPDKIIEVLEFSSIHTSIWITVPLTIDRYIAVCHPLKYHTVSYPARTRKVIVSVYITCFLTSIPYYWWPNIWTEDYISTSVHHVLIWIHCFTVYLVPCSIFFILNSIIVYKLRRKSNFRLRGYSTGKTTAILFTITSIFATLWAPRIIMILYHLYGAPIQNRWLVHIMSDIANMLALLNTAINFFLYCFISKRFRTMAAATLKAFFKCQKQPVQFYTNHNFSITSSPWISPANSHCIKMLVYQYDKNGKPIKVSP
Source text: (§1) DMR assays provide a single integrated readout of ligand-dependent cellular response, utilizing an optical biosensor in specialized microplates to detect wavelength shifts of reflected light as it passes through the biosensor and the lower portion of the cell (∼150-200 nm). As a signal pathway agnostic approach, DMR assays are well-suited to the study of GPCRs ([Fang et al., 2008], [Schröder et al., 2011]). The mass redistribution response (Δ picometer (pm)) likely reflects a number of intracellular events, including cytoskeletal rearrangement, protein trafficking and receptor internalization. Orphan receptor-expressing cells were gently washed twice with assay buffer (HBSS with 1 mM CaCl2, 1 mM MgCl2, 20 mM HEPES, 0.01% pluronic F-68, pH 7.4) containing 0.1% DMSO and cells were equilibrated for 90 min at 22°C in the EPIC Benchtop (BT) System (Corning) to establish a stable DMR signal. After 3-5 min baseline recordings, peptides (10 μM) were added in duplicate wells using an electronic 384-channel Viaflo pipette (Integra Biosciences, Switzerland) and DMR responses were measured for 60 min at 22°C. 100 nM norepinephrine was included as an internal assay control to assess the cellular DMR response via endogenously-expressed adrenoceptors in the TREx 293 cells. Real-time data were processed using the BT to column converter MS-Excel macro (Corning) and analyzed in GraphPad Prism 7.0. DMR recordings in peptide screening experiments were buffer and solvent corrected and the area under the curve (AUC) was quantified. For subsequent validation experiments, peptides were diluted in assay buffer containing 0.1% DMSO and DMR assays were performed as above. […] Data represent mean ± standard error of the mean (SEM) from at least 3 biologically independent experiments.
A TR-FRET real-time internalization assay was used to examine peptide-dependent changes in orphan receptor localization as described previously ([Foster and Bräuner-Osborne, 2018]). Surface-expressed SNAP-tagged receptors were labeled with a cell-impermeable luminescent terbium cryptate (100 nM SNAP Lumi4-Tb; Cisbio, France) for 1 hr at 37°C. Cells were washed to remove excess terbium and incubated with fluorescein-O-acetic acid (100 μM; Sigma Aldrich) for 5 min at 37°C. Peptides were added as for DMR assays, and internalization responses were recorded for 60 min at 37°C using an EnVision 2104 Multimode plate reader (PerkinElmer). 100 nM GLP-1 was used as a positive control for SNAP-GLP1R internalization. Real-time internalization responses were calculated based on TR-FRET (excitation 340 nm; emission 520 nm and 615 nm), and were expressed as the ratio between donor (terbium) and acceptor (fluorescein) emission. For peptide screening analysis (both DMR and internalization assays), we calculated the area under the curve from the real-time traces. […] Validation experiments for receptor internalization were performed as above. Internalization data was processed in MS-Excel and area under the curve was used to generate concentration-response curves using GraphPad Prism 7.0. Data represent mean ± standard error of the mean (SEM) from at least 3 biologically independent experiments.

human GPCRs = biological target: human GPCRs; design: method as in Guide to Pharmacology database; details: max reported value, ref Guide to Pharmacology database, cited from earlier work
Source text: Supplement mmc1.xlsx, sheet "HumanGPCRLigands" | column: pKi_value; pKd_value; pEC50_value; pIC50_value

NPFF1 = biological target: T2, NPFF1 (Homo sapiens, UniProt Q9GZQ6); test: β-arrestin recruitment (Tango), known peptide receptors; type: cell-based; details: mean, n = 3
T2 construct: host or cells: HTLA cells (HEK293-derived)
Source text: Supplement mmc7.xlsx, sheet "Peptide validation data" | column: Emax; pEC50

GPR15 [1] = biological target: T3, GPR15 (Homo sapiens, UniProt P49685); test: Dynamic mass redistribution (DMR), concentration-response; type: cell-based; details: receptor GPR15, mean; for DMR assays Emax (peak or AUC): SEM and n (2-3); for EC50: SEM and n (3), read-out: DMR assays pEC50 (converted)
T3 construct: hIL-2Ra signal peptide (N); expressed in transfected cells
T3 sequence (P49685 2-360 limits assumed): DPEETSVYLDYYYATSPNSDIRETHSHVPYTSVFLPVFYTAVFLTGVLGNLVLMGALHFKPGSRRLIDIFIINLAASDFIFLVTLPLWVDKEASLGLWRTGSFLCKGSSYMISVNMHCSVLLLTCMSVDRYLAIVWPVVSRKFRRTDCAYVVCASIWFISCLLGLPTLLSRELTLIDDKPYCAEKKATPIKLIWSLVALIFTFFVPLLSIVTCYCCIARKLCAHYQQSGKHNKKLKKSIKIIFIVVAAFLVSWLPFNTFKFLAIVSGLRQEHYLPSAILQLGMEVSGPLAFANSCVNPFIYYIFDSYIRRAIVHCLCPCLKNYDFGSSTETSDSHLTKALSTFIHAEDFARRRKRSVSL
Protocol: (§2) 48 hr prior to parallel assaying, SNAP-tagged oGPCR cells were plated (10,000 cells/well) in fibronectin-coated 384-well Epic biosensor microplates (Corning) and poly-D-lysine coated white 384-well plates (for internalization assays). SNAP- GLP-1 receptor was plated alongside orphan receptor cells as an internal assay control for internalization assays. Receptor-expression was induced with 0.1 μg/ml doxycycline.
as §1

GPR15 [2] = biological target: T3, GPR15; test: cAMP inhibition (Gi/o), HTRF with forskolin; type: cell-based; details: receptor GPR15, mean, SEM and n (4); for Emax: read-out: cAMP accumulation assays Emax (% FSK); for EC50: read-out: cAMP accumulation assays pEC50 (converted)
Protocol: Peptide-dependent second messenger responses were measured using commercially available HTRF-based IP1 and cAMP kits (Cisbio) as described previously ([Nørskov-Lauritsen et al., 2014]). Receptor expression was induced for 48 hr with 0.1 μg/ml doxycycline in 10 cm dishes. For IP1 measurements (to measure Gq/11), 2,500 cells/well were mixed with ligands in triplicate wells in low volume white 384-well plates at 37°C for 30 min. For cAMP assays, 2,500 cells/well were added in triplicate wells in white 384-well plates in the absence or presence of 3 μM forskolin (to measure Gs and Gi/o activation respectively). 100 μM IBMX was included to prevent cAMP degradation during 30 min stimulation on a plate shaker at room temperature. For both assays, HTRF was measured using an EnVision 2104 Multimode plate reader (PerkinElmer).

GPR15 [3] = biological target: T3, GPR15; test: Real-time receptor internalization (TR-FRET), concentration-response; type: cell-based; details: mean, SEM and n (3); for EC50: read-out: Internalization assays pEC50 (converted)
Protocol: as §2
(§3) A TR-FRET real-time internalization assay was used to examine peptide-dependent changes in orphan receptor localization as described previously ([Foster and Bräuner-Osborne, 2018]). Surface-expressed SNAP-tagged receptors were labeled with a cell-impermeable luminescent terbium cryptate (100 nM SNAP Lumi4-Tb; Cisbio, France) for 1 hr at 37°C. Cells were washed to remove excess terbium and incubated with fluorescein-O-acetic acid (100 μM; Sigma Aldrich) for 5 min at 37°C. Peptides were added as for DMR assays, and internalization responses were recorded for 60 min at 37°C using an EnVision 2104 Multimode plate reader (PerkinElmer). 100 nM GLP-1 was used as a positive control for SNAP-GLP1R internalization. Real-time internalization responses were calculated based on TR-FRET (excitation 340 nm; emission 520 nm and 615 nm), and were expressed as the ratio between donor (terbium) and acceptor (fluorescein) emission. For peptide screening analysis (both DMR and internalization assays), we calculated the area under the curve from the real-time traces. As the magnitude of the responses was variable between orphan receptor targets, particularly for the SNAP-tag based internalization assay where the signal is dependent on receptor surface expression, the AUC values were normalized to their respective plate averages and expressed as fold change. Validation experiments for receptor internalization were performed as above. Internalization data was processed in MS-Excel and area under the curve was used to generate concentration-response curves using GraphPad Prism 7.0. Data represent mean ± standard error of the mean (SEM) from at least 3 biologically independent experiments.

MAS1 = biological target: T4, MAS1 (Homo sapiens, UniProt P04201); test: β-arrestin recruitment (Tango), indicative pairing; type: cell-based; details: mean, n = 3
T4 construct: host or cells: HTLA cells (HEK293-derived)
T4 sequence (P04201 1-325): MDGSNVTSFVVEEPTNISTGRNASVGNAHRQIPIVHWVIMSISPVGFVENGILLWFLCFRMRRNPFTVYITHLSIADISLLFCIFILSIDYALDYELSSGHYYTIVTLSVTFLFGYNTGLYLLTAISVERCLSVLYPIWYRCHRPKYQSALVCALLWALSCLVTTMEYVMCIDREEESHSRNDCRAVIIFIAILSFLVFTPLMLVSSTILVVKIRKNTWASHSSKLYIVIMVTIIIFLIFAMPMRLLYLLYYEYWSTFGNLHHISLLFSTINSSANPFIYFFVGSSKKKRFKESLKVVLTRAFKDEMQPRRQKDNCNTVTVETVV
Protocol: The peptide library was additionally screened against 120 GPCR targets in parallel, including all available orphan receptors and 27 known class A peptide receptors using the Tango assay platform ([Kroeze et al., 2015]). Briefly, HTLA cells (a HEK293 cell line stably expressing a tTA-dependent luciferase reporter and a β-arrestin2-TEV fusion gene) were plated 10,000 cells/well in poly-L-lysine–coated clear-bottom white 384-well plates in DMEM supplemented with 10% FBS, 100 U/ml penicillin and 100 μg/ml streptomycin, 2 μg/ml puromycin and 100 μg/ml hygromycin B. 24 hr later, cells were transfected with Tango GPCR constructs using the calcium phosphate method ([Jordan et al., 1996]). The next day, culture medium was changed to DMEM + 1% dFBS and 10 μM peptides were added for overnight stimulation. Bright-Glo solution (Promega) was incubated for 15–20 min at room temperature, and luminescence was counted using a Trilux luminescence counter (Wallac).
For subsequent peptide validation experiments using Tango assays, HTLA cells were transiently transfected in 10 cm dishes with the receptor of interest using polyethylenimine (PEI) ([Longo et al., 2013]). After 24 hr, 25,000 cells/well were plated in clear bottom, white-walled 384-well plates. Assays were performed as described above, with luminescence measured using an EnSpire 2300 Multimode plate reader (PerkinElmer). Luminescence counts were exported into Excel and were analyzed using GraphPad Prism 7.

GPR37 = test: Repeat of proposed literature pairing (mass redistribution and/or internalization); type: cell-based, human; details: repeat of literature pairing; Figure S7A, Tables S5 and S7
Source text: as §1, §3

T2 sequence (Q9GZQ6 whole entry): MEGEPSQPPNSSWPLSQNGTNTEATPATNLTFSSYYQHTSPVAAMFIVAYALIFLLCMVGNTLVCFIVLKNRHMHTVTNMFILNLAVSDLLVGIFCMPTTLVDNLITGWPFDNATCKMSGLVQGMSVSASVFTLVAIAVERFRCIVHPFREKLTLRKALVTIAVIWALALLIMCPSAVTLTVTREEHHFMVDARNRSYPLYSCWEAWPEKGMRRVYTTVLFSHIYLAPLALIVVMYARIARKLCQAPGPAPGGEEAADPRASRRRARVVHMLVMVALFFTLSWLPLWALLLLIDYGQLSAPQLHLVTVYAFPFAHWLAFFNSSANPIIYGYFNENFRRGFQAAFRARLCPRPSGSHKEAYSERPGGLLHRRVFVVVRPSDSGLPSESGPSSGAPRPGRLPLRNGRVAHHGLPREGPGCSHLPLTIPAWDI

ACTH (SYSMEHFRWGKPVGKKRRPVKVYPNGAEDESAEAFPLEF; Corticotropin; UniProt P01189 138-176, looked up) [melanocortin receptor ligand, reference compound]
Peptide pairing for orphan receptor GPR139 (confirmed/unconfirmed) (GPR139; repeat of literature pairing): Confirmed peptide pairings for orphans
receptor-dependent activation by proposed ligand, GPR139 (GPR139; repeat of literature pairing across multiple assays, Figure S7A, Tables S5 and S7): selective receptor-dependent activation
pKi_value (human GPCRs; receptor mc3r_human (MC3R, P41968)): 7.1
pKi_value (human GPCRs; receptor mc4r_human (MC4R, P32245)): 6.2
pKi_value (human GPCRs; receptor mc5r_human (MC5R, P33032)): 5
pKi_value (human GPCRs; receptor mshr_human (MC1R, Q01726)): 8.6

ARANMEAGTMSHFPSLPQRF [Peptide 135]
Emax, Tango (fold over basal) (NPFF1): 22.0 fold over basal
pEC50, Tango (fold over basal) (NPFF1): 6.22

KRRPAKAWS [Peptide 64.1]
DMR assays Emax (peak or AUC) (GPR15 [1]): 107
cAMP accumulation assays Emax (% FSK) (GPR15 [2]): 98.3 % FSK
Internalization assays Emax (AUC) (GPR15 [3]): 3.1

KRRPAKAWSGRRTRLCCHRVPSPNSTNLKGHHVRLCKPCKLEPEPRLWVVPGALPQV (disulfide 16-39, 17-36) [64.4 (Phoenix)]
EC50 (GPR15 [1]): 324 nM
Emax (GPR15 [2]): 41%
EC50 (GPR15 [2]): 1.26 nM
EC50 (GPR15 [3]): 89.1 nM

LWVVPGALPQV [64 original]
DMR assays Emax (peak or AUC) (GPR15 [1]): 197
cAMP accumulation assays Emax (% FSK) (GPR15 [2]): 29.2 % FSK
Internalization assays Emax (AUC) (GPR15 [3]): 45.8

NAWGPWSKEQLSPQAREFWSLAAPQRF [Peptide 166]
Emax, Tango (fold over basal) (NPFF1): 26.7 fold over basal
pEC50, Tango (fold over basal) (NPFF1): 4.75
Emax, Tango (fold over basal) (MAS1): 1.2 fold over basal
pEC50, Tango (fold over basal) (MAS1): 7.14

RPYLTQGNEIFPD [Peptide 90]
Emax, Tango (fold over basal) (NPFF1): 9.6 fold over basal
pEC50, Tango (fold over basal) (NPFF1): 4.27

TRLCCHRVPSPNSTNLKGHHVRLCKPCKLEPE (also: bicyclic or more (positions not given here)) [Peptide 64.2]
DMR assays Emax (peak or AUC) (GPR15 [1]): 81
cAMP accumulation assays Emax (% FSK) (GPR15 [2]): 92.5 % FSK
Internalization assays Emax (AUC) (GPR15 [3]): 4.3

TRLCCHRVPSPNSTNLKGHHVRLCKPCKLEPEPRLWVVPGALPQV (disulfide 4-27, 5-24) [64.3 (Phoenix)]
EC50 (GPR15 [1]): 13.2 nM
Emax (GPR15 [2]): 40.8%
EC50 (GPR15 [2]): 25.7 nM
EC50 (GPR15 [3]): 447 nM

head activator
receptor-dependent activation by proposed ligand, GPR37 (GPR37): no activity
